Among the data in the NIST ThermoML archive (doi:10.1016/j.tca.2007.07.008) are Normal melting temperature, refractive index and mass density values, retold here.

± gives the expanded uncertainty stated by the source.

The conditions of series [1]: for mass density: 298.15 K, 101.33 kPa, Liquid, Vibrating tube method.
Series [2] can be described thus: refractive index (Na D-line) (dimensionless). The conditions noted are these: 298.15 K; 101.33 kPa; Liquid; Standard Abbe refractometry.

On to `CN1C(=O)N(C)C2C1N(C)C(=O)N2C` (stereo unspecified) [1,3,4,6-tetramethylglycoluril], for which the Normal melting temperature in series [1] (Crystal) is 228 ± 4 °C.

As a reminder, the refractive index is the speed of light in vacuum divided by its phase velocity in the sample. As usually defined, the mass density is the mass of a sample divided by its volume. Take `CC(=O)N(C)C` [N,N-dimethylethanamide]: the refractive index in series [2] amounted to 1.436 ± 0.0007. Further, in series [1], the mass density was 936.5 ± 0.1 kg/m3.

Take `CNC=O` [N-methylformamide]: the refractive index in series [2] was found to be 1.4308 ± 0.0008. For the same compound, in series [1], the mass density was 998.92 ± 0.3 kg/m3.

For `CC(C)=O` [acetone], in series [2], the refractive index is recorded as 1.3563 ± 0.0007. Also, the mass density in series [1] was 784.65 ± 0.16 kg/m3.

With `CN(C)C=O` [dimethylformamide], in series [2], the refractive index stood at 1.4276 ± 0.0007. Also, the mass density in series [1] is recorded as 943.93 ± 0.13 kg/m3.

For `NC=O` [formamide], the refractive index in series [2] came out at 1.4465 ± 0.0007. For the same compound, the mass density in series [1] was 1129.15 ± 0.2 kg/m3.
